According to patent US9493439B1, “Proteasome inhibitors” (UNIVERSITY OF KENTUCKY RESEARCH FOUNDATION, priority 2014, dated 2016):

Key:
[1] = test system: T-L activity of proteasomes in RPMI 8226 cell extracts; assay: T-L activity of proteasomes in RPMI 8226 cell extracts (Boc-LRR-AMC); format: biochemical, human
Method: (§1) The inhibitory effects of G4-1 on the CT-L, C-L and T-L activities were measured by assessing the hydrolysis of the fluorogenic proteasome substrates Suc-LLVY-AMC, Z-LLE-AMC and Boc-LRR-AMC, respectively. […] FIG. 5C provides a reaction progress curve with 30 min preincubation of RPMI 8226 cell extracts and G4-1. […] FIG. 5E includes the potency of G4-1 in inducing cell death in BxPC-3 cell lines with acquired resistance to bortezomib or carfilzomib. FIG. 5F provides a comparison of IC50 values of BxPC-3 sublines resistant to carfilzomib or bortezomib to its parental cell lines.
(§2) In separate experiments, cytosolic extracts of RPMI-8226 or BxPC-3 cells were prepared according to the method of Kisselev and Goldberg^25 and used in place of purified proteasomes. The fluorescence from liberated AMC of the subunit-selective probe substrates was measured as described above.

[2] = test system: BxPC-3 cell lines with acquired resistance to bortezomib or carfilzomib; assay: Cytotoxic effects, BxPC-3 sublines with acquired resistance to bortezomib or carfilzomib; format: cell-based, human
Excerpt: (§3) Human cancer cell lines BxPC-3, H358, H-23, LNCaP, Panc-1, and RPMI 8226 were obtained from the ATCC (American Type Culture Collection) and maintained in the ATCC-recommended media, DMEM or RPMI 1640 supplemented with 10% fetal bovine serum (from GIBCO, CeliGro, and Atlanta Biologicals). BxPC-3 cells with acquired resistance to bortezomib or carfilzomib were established by growing them in the presence of stepwise in-creasing concentrations of the respective drug over a period of approximately 6 months. In order to determine the extent of drug resistance, cytotoxicity assays were performed using BxPC-3 sublines adapted to 60 nM bortezomib and 200 nM carfilzomib, respectively.
(§4) The cytotoxic effects of G4 and its analogs were determined using CellTiter Glo assay or CellTiter 96 Aqueous One Solution Cell Proliferation assay (Promega). Adherent cells (Panc-1, LNCaP, BxPC-3, bortezomib- or carfilzomib-resistant BxPC-3 sublines) growing in log phase were plated at 7000-10000 cells per well. RPMI 8226 cells growing in suspension were collected by centrifugation and plated at 10 000 cells per well. […] After 72 h, the cell viability was determined using the assay protocol recommended by the manufacturers. The resulting signals were quantified using a Veritas microplate luminometer or a SpectraMax M5 microplate spectrophotometer (Molecular Devices).

[3] = molecular target: T1, CT-L activity of purified constitutive proteasome (Homo sapiens, UniProt P28074); assay: G4 analogs against the CT-L activity of purified proteasomes; format: biochemical
T1 construct: purchased R&D Systems
Method: Initially, purified 20S human proteasomes (CP and IP, R&D Systems) were used to assess the in vitro inhibition of proteasome catalytic activities by G4 and its analogs. In the 96-well format assays involving a 100/4 L total volume, 20S proteasomes (0.5/4 g/mL) were incubated with G4, its analogs, or reference compounds (e.g., carfilzomib) in assay buffer (20 mM Tris-HCl, 0.5 mM EDTA, 0.035% SDS) for 30 min at room temperature. Reactions were initiated by the addition of individual subunit-selective fluorogenic substrates containing the AMC (7-amino-4-methylcoumarin) group. The following substrates were used: for /31 activity, Ac-nLPnLD-AMC (100/4M); for /32 and /32i activity, Boc-LRR-AMC (200/4M); for /35 activity, Ac-WLA-AMC (20/4M); for /31i activity, Ac-PAL-AMC (100/4M); for /35i activity, Ac-ANW-AMC (100/4M). The fluorescence of liberated AMC was measured over a period of 90 min at room temperature using excitation and emission wavelengths of 360 and 460 nm on a SpectraMax M5 fluorescence plate reader (Molecular Devices).
In comparison, modifications at the ring D had little impact on the activity of G4. […] The mechanism by which these compounds enhance the CT-L activity of proteasome is unclear at this time.

[4] = Microsomal stability assay, human; format: in vitro ADME; details: human liver microsomes, compared to carfilzomib and bortezomib
Method: (§5) The metabolic stability profiles of G4-1 and reference compounds (carfilzomib and bortezomib) were assessed by monitoring the disappearance of the test compounds in the presence of liver microsomes. A typical incubation mixture (100 sL total volume) for metabolic stability studies contained 1 sM test compounds, 0.5 mg/mL microsomal protein (pooled Balb/c mouse liver microsomes prepared in-house or BD UltraPool human liver microsomes), 100 mM Tris-HCl buffer (pH 7.4), and NADPH-generating system (5 mM isocitric acid, 0.2 unit/mL isocitric acid dehydrogenase, 5 mM magnesium chloride, 1 mM NADP^+). After preincubation at 37° C. for 5 min, the reactions were started by addition of NADP^+ and further incubated for another 0, 5, 10, 20 min. For control experiments, NADPH and/or liver microsomes were omitted from these incubations. The reactions were terminated by adding 100 sL of ice-cold acetonitrile containing phenytoin (1 sM) as internal standard and keeping on ice for 30 min, followed by centrifugation at 16 100 g for 15 min to obtain the supernatant. Aliquots (5 sL) were then analyzed for substrate disappearance using liquid chromatography-tandem mass spectrometry (Agilent 1200 HPLC instrument interfaced with Applied Biosystems Qtrap 3200) equipped with an electrospray ion source.

[5] = test system: variety of cancer cell lines including LNCaP prostate cancer cells; assay: Cytotoxic effects, multiple cancer cell lines; format: cell-based, human
Excerpt: as §3, §4

[6] = Microsomal stability assay, mouse; format: in vitro ADME; details: mouse liver microsomes, compared to carfilzomib and bortezomib
Method: as §5

[7] = test system: LNCaP tumors; details: mouse, in vivo
Method: (§6) Male nude mice bearing LNCaP tumors received intraperitoneal injections of either G4-1 (5 mg/kg), carfilzomib (5 mg/kg), or vehicle alone (8% DMSO in HP-β-cyclodextrin and sodium citrate) twice a week for 4 weeks (n=5 mice/group). Results are expressed as mean and standard deviation.
(§7) Six-week-old male BALB/c athymic nude mice (purchased from Orient Bio Inc., SungNam, Republic of Korea) were maintained in accordance with the National Institute of Toxicological Research of the Korea Food and Drug Administration guidelines as well as the regulations for the care and use of laboratory animals of the animal ethics committee of the Konyang University. LNCaP cells (2×10^6 cells/50 sL) were subcutaneously implanted into each animal. After the xenograft tumors had grown to a size of ‘−100 mm^3, mice (n=5/group) were dosed intraperitoneally twice a week for 4 weeks with G4-1 (5 mg/kg), carfilzomib (5 mg/kg), or vehicle only (8% DMSO in HP-Beta-CD and citrate). Tumor volumes (calculated using the following formula, (width)^2×length/2) and body weights were measured every 4 days during the experimental period. At the end of the experimental period (at day 30), mice were euthanized by cervical dislocation and tumors were isolated and weighed.

[8] = test system: LNCaP tumors; assay: In vivo efficacy assay, LNCaP xenograft; details: 5 mg/kg intraperitoneally twice a week for 4 weeks
Method: as §6, §7

[9] = test system: C-L activity of proteasomes in RPMI 8226 cell extracts; assay: C-L activity of proteasomes in RPMI 8226 cell extracts (Z-LLE-AMC); format: biochemical, human
Method: as §1, §2

[10] = test system: proteasome in RPMI 8226 cell lysates; assay: Jump dilution reversibility assay; format: biochemical, human; details: preincubation of RPMI 8226 cell extracts for 30 min
Method: In further investigation of the mode of proteasome inhibition by G4-1, a dilution assay was performed following a procedure previously reported.^26 Briefly, RPMI 8226 cell lysates containing 30/4 g of total protein were incubated with G4-1 (10/4M) in 20S proteasome assay buffer for 30 min at room temperature. Lysates treated with G4-1 were subsequently transferred to a semimicrocuvette, and the baseline proteasome activity was determined by measuring the hydrolysis rate of Suc-LLVY-AMC. After establishment of the baseline, lysates treated with G4-1 were rapidly mixed with the 20S proteasome assay buffer, yielding 25-fold dilution. Following this 25-fold dilution from 10 to 0.4/4M G4-1, the hydrolysis of Suc-LLVY-AMC was again monitored over approximately 30 min.

[11] = test system: CT-L activity of proteasomes in RPMI 8226 cell extracts; assay: CT-L activity of proteasomes in RPMI 8226 cell extracts (Suc-LLVY-AMC); format: biochemical, human
Method: as §1, §2

[12] = Phase II clinical trials; cited from earlier work

Row | SMILES | activity against the T-L activity of cell extracts [1] | anticancer effect in cell line models with acquired resistance [2] | inhibitory potency against the CT-L activity of purified proteasomes [3] | metabolic stability [4] | anticancer activity against cancer cell lines [5] | metabolic stability [6] | systemic toxicity in mice [7] | tumor growth in vivo [8] | inhibition of proteasomal C-L activity of cell extracts [9] | inhibition of proteasomal activity after preincubation [10] | inhibition of proteasomal CT-L activity of cell extracts [11] | median duration of response [12] | overall survival [12] | response rate [12] | body weight over the course of treatment [8]
1 | Cc1ccc(OS(=O)(=O)c2cccc(C(F)(F)F)c2)c(-c2cc(-c3ccccc3)n(CC(=O)N[C@@H]3CCNC3)n2)c1 [G4-1] | no activity | not negatively impacted | one of the most potent inhibitors | excellent metabolic stability | good anticancer activity | excellent metabolic stability | without apparent systemic toxicity | effectively suppressed tumor growth | effectively inhibit | nearly complete inhibition | effectively inhibit | – | – | – | –
2 | CC(C)C[C@H](NC(=O)[C@H](CCc1ccccc1)NC(=O)CN1CCOCC1)C(=O)N[C@@H](Cc1ccccc1)C(=O)N[C@@H](CC(C)C)C(=O)[C@@]1(C)CO1 [carfilzomib] | – | – | – | – | – | – | – | – | – | – | – | 7.8 months | ~16 months | under 25% | weight loss
